Source: paper PMC5809559, “DYRK1A inhibition and cognitive rescue in a Down syndrome mouse model are induced by new fluoro-DANDY derivatives” (Scientific Reports, 2018)
Where “and” joins values, the source holds several entries; their conditions need not be identical. Equal values may be shown once. Read-outs that look alike come from different tables or passages of the source.

Tests used:
[1] = system: KB cells; test: KB cell proliferation / cytotoxicity (CellTiter-Blue); format: cell-based; details: Homo sapiens; for inhibition at 1 µM / inhibition at 10 µM: 72 h; for inhibition at 1 µM: 10^−6 M, read-out: % Growth inhibition 10^−6 M; for inhibition at 10 µM: 10^−5 M, read-out: % Growth inhibition 10^−5 M
Method: Cancer cell lines were obtained from the American Type Culture Collection (Rockville, MD, USA) and were cultured according to the supplier’s instructions. Briefly, human KB epidermal carcinoma cells were grown in Dulbecco minimal essential medium (DMEM) containing 4.5 g/L glucose supplemented with 10% fetal calf serum (FCS) and 1% glutamine, 100 UI penicillin, 100 µg/mL streptomycin and 1.5 µg/mL fungizone and maintained at 37 °C in a humidified atmosphere containing 5% CO2. Cell viability was assessed using Promega CellTiter-Blue TM reagent according to the manufacturer’s instructions. Cells were seeded in 96-well plates (5 × 10^3 cells/well) containing […]. After 24 h of culture, the cells were supplemented with […] of the studied compound dissolved in DMSO (less than 0.1% in each preparation). After 72 h of incubation, […] of resazurin was added for 2 h before recording fluorescence (λex = 560 nm, λem = 590 nm) using a Victor microtiter plate fluorimeter (Perkin-Elmer, USA).

[2] = target: T1, DYRK1A catalytic domain (DYRK1A-ΔC) (Rattus norvegicus, UniProt Q63470); test: In vitro DYRK1A kinase inhibition, UFLC assay with fluorescent peptide substrate; format: biochemical; details: read-out: IC50, in vitro inhibition of DYRK1A
T1 construct: The cDNA coding for the catalytic domain (residues 1-502) of rat DYRK1A; 6xHis; made in house; host or cells: E. coli BL21(DE3), pET28

[3] = design: method as in PMID 27194478; details: other drugs acting on the central nervous system; cited from earlier work
[4] = target: T2, DYRK1A (Homo sapiens, UniProt Q13627); test: Inhibition of tau phosphorylation by DYRK1A in cellulo (HEK293 co-transfected with DYRK1A and Tau, ClariCELL ELISA phospho-TauT212); format: cell-based
T2 construct: vectors encoding full-length human DYRK1A and Tau; host or cells: HEK293

[5] = 3,5-diaryl-7-azaindoles 5a-5g, Fig. 5
[6] = 3,5-diaryl-7-azaindoles 4a-4f, Fig. 4

| Compound | IC50 [2, 5] | IC50 [2, 6] | other results |
| --- | --- | --- | --- |
| Oc1ccc(-c2cnc3[nH]cc(-c4ccc(F)c(F)c4)c3c2)cc1O [Compound 5c] | 56.6 nM | – | inhibition at 1 µM ([1]; KB): 6 ± 2% |
| CNCCC(Oc1ccc(C(F)(F)F)cc1)c1ccccc1 (centres unmarked) [fluoxetine] | – | – | Kp (brain concentration/plasma concentration) [3]: 5.23 |
| COc1ccc(-c2cnc3[nH]cc(-c4ccc(F)c(F)c4)c3c2)cc1OC [Compound 4c] | – | 5260 nM | – |
| COc1ccc(-c2c[nH]c3ncc(-c4ccc(OCc5ccccc5)c(OCc5ccccc5)c4)cc23)cc1OC [Compound 4f] | – | 18500 nM | – |
| COc1ccc(-c2cnc3[nH]cc(-c4ccc(F)cc4)c3c2)c(OC)c1 [Compound 4b] | – | 920 nM | – |
| COc1ccc(-c2c[nH]c3ncc(-c4ccc(O)cc4)cc23)cc1F [Compound 5e] | 41.5 nM | – | inhibition at 10 µM [1]: 66 ± 3%; inhibition at 1 µM [1]: 30 ± 1% |
| COc1ccc(-c2cnc3[nH]cc(-c4ccc(F)c(F)c4)c3c2)c(OC)c1 [Compound 4d] | – | 37400 nM | – |
| COc1ccc(-c2c[nH]c3ncc(-c4ccc(OCc5ccccc5)cc4)cc23)cc1F [Compound 4e] | – | 6090 nM | – |
| Oc1ccc(-c2cnc3[nH]cc(-c4ccc(O)c(F)c4)c3c2)cc1 [Compound 5g] | 9.34 nM and 9.3 nM | – | inhibition at 10 µM ([1]; KB): 95 ± 1%; inhibition at 1 µM ([1]; KB): 46 ± 1%; IC50 ([1]; estimated, read-out: estimated IC50, KB cell growth inhibition): ~1000 nM; IC50 ([4]; HEK293 transfected with DYRK1A and tau, 2 h incubation): 380 nM; Ratio between in cellulo and in vitro inhibitory potencies ([4]; tau phosphorylation IC50 / in vitro DYRK1A IC50): 41 |
| COc1ccc(-c2c[nH]c3ncc(-c4ccc(O)c(O)c4)cc23)cc1OC [Compound 5f] | 476 nM | – | – |
| Oc1ccc(-c2cnc3[nH]cc(-c4ccc(F)c(F)c4)c3c2)c(O)c1 [Compound 5d] | 232 nM | – | – |
| COc1ccc(-c2cnc3[nH]cc(-c4ccc(F)cc4)c3c2)cc1OC [Compound 4a] | – | 1430 nM | – |
| CC(NC(C)(C)C)C(=O)c1cccc(Cl)c1 (centres unmarked) [buproprion] | – | – | Kp (brain concentration/plasma concentration) [3]: 4.97 |
| OCCN1CCN(CCCN2c3ccccc3Sc3ccc(Cl)cc32)CC1 [perphenazine] | – | – | Kp (brain concentration/plasma concentration) [3]: 7.12 |
| Oc1ccc(-c2cnc3[nH]cc(-c4ccc(F)cc4)c3c2)c(O)c1 [Compound 5b] | 191 nM | – | – |
